Experiment [1] deals with KRAS G12C (Homo sapiens, UniProt P01116, G12C). As to the kind of experiment: GDP-GTP exchange assay (KRAS_G12C exchange). The format is biochemical. The conditions noted are these: bodipy-GDP loaded KRAS G12C 2.5 nM, SOS1 150 nM, GppNHp; 2 hours pre-incubation, 2 hours reaction; read-out: G12C_exchange. The procedure, abridged:
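Fluorescence exchange of bodipy-GDP for GppNHp, SOS1-driven, read at 485/520 nm; IC50 from four-parameter variable-slope fit. Both mutants used 2.5 nM final labelled protein and a 2 h compound pre-incubation. G12C reaction had 500 uM GppNHp and 150 nM SOS1 for 2 h; G12D ran 4 h.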

Experiment [2] concerns MIA PaCa-2 (KRAS G12C) cells. As to the kind of experiment: Cellular pERK HTRF assay (KRAS_G12C pERK). Format: cell-based, human. The conditions noted are these: Homo sapiens, MIA PaCa-2, 4 hours incubation, read-out: G12C_pERK. Summed up:
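MIA PaCa-2 cells plated overnight, then exposed to compound for 4 h at 37 °C (G12C compounds). Phospho-ERK1/2 measured in lysates by HTRF (665/620 nm) after overnight antibody incubation; IC50 from percent inhibition versus log concentration.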

A value given as a limit tells only on which side of the number the result lay.

Chain of KRAS G12C (P01116 1-188 isoform P01116-2 G12C): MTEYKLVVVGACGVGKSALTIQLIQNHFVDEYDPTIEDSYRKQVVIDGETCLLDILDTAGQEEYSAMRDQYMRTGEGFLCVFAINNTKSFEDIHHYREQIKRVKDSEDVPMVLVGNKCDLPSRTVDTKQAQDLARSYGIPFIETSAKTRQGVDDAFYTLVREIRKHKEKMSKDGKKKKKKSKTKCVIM

As for `CC#CC(=O)N1CC[C@H](n2nnc3c(N4CC(N(C)C)C4)nc4c(F)c(-c5c(C)c(Cl)cc6[nH]ncc56)c(C#N)cc4c32)C[C@H]1CC#N` [Example 170, 1-((2S,4S)-1-(but-2-ynoyl)-2-(cyanomethyl)piperidin-4-yl)-7-(6-chloro-5-methyl-1H-indazol-4-yl)-4-(3-(dimethylamino)azetidin-1-yl)-6-fluoro-1H-[1,2,3]triazolo[4,5-c]quinoline-8-carbonitrile], the IC50 in experiment [1] and in experiment [2] was not above 100 nM throughout.

Consider `C=CC(=O)N1CC(n2c(=O)[nH]c3c(=O)n(-c4c(C)ccnc4C(C)C)c4nc(-c5cc(O)cc6ccccc56)c(F)cc4c32)C1` [Example 26, 1-(1-acryloylazetidin-3-yl)-8-fluoro-7-(3-hydroxynaphthalen-1-yl)-5-(2-isopropyl-4-methylpyridin-3-yl)-3,5-dihydro-1H-imidazo[4,5-c][1,8]naphthyridine-2,4-dione], for which the IC50 in experiment [1] was not above 100 nM; in experiment [2], 1000 to 5000 nM.

As for `C=CC(=O)N1CC[C@H](n2nnc3c(N4CC(C)(N(C)C)C4)nc4c(F)c(-c5c(C)c(C)cc6[nH]ncc56)c(C)cc4c32)C[C@H]1CC#N` (single isomer, unassigned) [Example 198a], the IC50 in experiment [1] and in experiment [2] was not above 100 nM in each case.

`C=CC(=O)N1CCC(n2cnc3c(N4CC(N(C)CC)C4)nc4c(F)c(-c5cccc6cccc(Cl)c56)c(Cl)cc4c32)C[C@H]1CC#N` (single isomer, unassigned) [Example 214b]: the IC50 in experiment [1] and in experiment [2] was not above 100 nM in each case.

For the molecule `C=CC(=O)N1CC[C@H](n2cnc3c(N4CC(N(C)C)C4)nc4c(F)c(-c5ccc(F)c6cccnc56)c(C(F)(F)F)cc4c32)C[C@H]1CC#N` [Example 229, 2-((2S,4S)-1-acryloyl-4-(4-(3-(dimethylamino)azetidin-1-yl)-6-fluoro-7-(5-fluoroquinolin-8-yl)-8-(trifluoromethyl)-1H-imidazo[4,5-c]quinolin-1-yl)piperidin-2-yl)acetonitrile], the IC50 in experiment [1] and in experiment [2] was not above 100 nM throughout.

In the case of `C=CC(=O)N1CC[C@H](n2nnc3c(N4CC(C)(N(C)C)C4)nc4c(F)c(-c5c(C)c(F)cc6[nH]ncc56)c(C)cc4c32)C[C@H]1CC#N` [Example 202a, 2-((2S,4S)-1-acryloyl-4-(4-(3-(dimethylamino)-3-methylazetidin-1-yl)-6-fluoro-7-(6-fluoro-5-methyl-1H-indazol-4-yl)-8-methyl-1H-[1,2,3]triazolo[4,5-c]quinolin-1-yl)piperidin-2-yl)acetonitrile], the IC50 in experiment [1] and in experiment [2] was not above 100 nM in each case.

Take `C=CC(=O)N1CC[C@H](n2cnc3c(-n4ccnc4C)nc4c(F)c(-c5ccc(F)cc5)c(Cl)cc4c32)C[C@H]1CC#N` [Example 123, 2-((2S,4S)-1-acryloyl-4-(8-chloro-6-fluoro-7-(4-fluorophenyl)-4-(2-methyl-1H-imidazol-1-yl)-1H-imidazo[4,5-c]quinolin-1-yl)piperidin-2-yl)acetonitrile]: the IC50 in experiment [1] and in experiment [2] was not above 100 nM each time.

Consider `C=CC(=O)N1CC[C@H](n2nnc3c(N4CC(N(C)C)C4)nc4c(F)c(-c5cccc(C)c5Cl)c(C)cc4c32)C[C@H]1CC#N` [Example 247, 2-((2S,4S)-1-acryloyl-4-(7-(2-chloro-3-methylphenyl)-4-(3-(dimethylamino)azetidin-1-yl)-6-fluoro-8-methyl-1H-[1,2,3]triazolo[4,5-c]quinolin-1-yl)piperidin-2-yl)acetonitrile], for which the IC50 in experiment [1] and in experiment [2] was not above 100 nM each time.

Consider `C=CC(=O)N1CC[C@H](n2nnc3c(OC[C@@H]4CCCN4C)nc4c(Cl)c(-c5cccc6cccnc56)c(Cl)cc4c32)C[C@H]1CC#N` (single isomer, unassigned) [Example 288a], for which the IC50 in experiment [1] and in experiment [2] was not above 100 nM in each case.

With `C=CC(=O)N1CC[C@H](n2cnc3c(OC[C@H]4CCCN4C)nc4c(F)c(-c5cccc(Cl)c5C)c(Cl)cc4c32)C[C@H]1CC#N` (single isomer, unassigned) [Example 119a], the IC50 in experiment [1] and in experiment [2] was not above 100 nM in each case.

On to `C=CC(=O)N1CC[C@H](n2cnc3c(N4CC(N(C)C)C4)nc4c(F)c(-c5cc(O)ccc5Cl)c(Cl)cc4c32)C[C@H]1CC#N` (single isomer, unassigned) [Example 54a], for which the IC50 in experiment [1] and in experiment [2] was not above 100 nM each time.

On to `CC#CC(=O)N1CC[C@H](n2cnc3c(N4CC5(CCCN5C)C4)nc4c(F)c(-c5c(C)c(Cl)cc6[nH]ncc56)c(Cl)cc4c32)C[C@H]1CC#N` [Example 83a, 2-((2S,4S)-1-(but-2-ynoyl)-4-(8-chloro-7-(6-chloro-5-methyl-1H-indazol-4-yl)-6-fluoro-4-(5-methyl-2,5-diazaspiro[3.4]octan-2-yl)-1H-imidazo[4,5-c]quinolin-1-yl)piperidin-2-yl)acetonitrile], for which the IC50 in experiment [1] and in experiment [2] was not above 100 nM throughout.

For the molecule `CC#CC(=O)N1CC[C@H](n2nnc3c(OC[C@@H]4CCCN4C)nc4c(Cl)c(-c5cccc6cccnc56)c(Cl)cc4c32)C[C@H]1CC#N` (single isomer, unassigned) [Example 279a], the IC50 in experiment [1] and in experiment [2] was not above 100 nM throughout.

`C=CC(=O)N1CC[C@H](n2cnc3c(N4CC(N(C)C)C4)nc4c(F)c(-c5cccc6ccncc56)c(Cl)cc4c32)C[C@H]1CC#N` (single isomer, unassigned) [Example 71a]: the IC50 in experiment [1] and in experiment [2] was not above 100 nM throughout.

As for `C=CC(=O)N1CC[C@H](n2cnc3c(N4CC(N(C)C)C4)nc4c(F)c(-c5cc(O)cc6ccccc56)c(Cl)cc4c32)C[C@H]1CC#N` (single isomer, unassigned) [Example 47a], the IC50 in experiment [1] and in experiment [2] was not above 100 nM in each case.

In the case of `C=CC(=O)N1CC[C@H](n2nnc3c(N4CC(N(C)C)C4)nc4c(F)c(-c5c(C)c(Cl)cc6c5cnn6C)c(Cl)cc4c32)C[C@H]1CC#N` (single isomer, unassigned) [Example 150a], the IC50 in experiment [1] and in experiment [2] was not above 100 nM throughout.

Take `C=C(F)C(=O)N1CC[C@H](n2nnc3c(N4CC(N(C)C)C4)nc4c(F)c(-c5c(C)c(Cl)cc6[nH]ncc56)c(Cl)cc4c32)C[C@H]1CC#N` [Example 189, 2-((2S,4S)-4-(8-chloro-7-(6-chloro-5-methyl-1H-indazol-4-yl)-4-(3-(dimethylamino)azetidin-1-yl)-6-fluoro-1H-[1,2,3]triazolo[4,5-c]quinolin-1-yl)-1-(2-fluoroacryloyl)piperidin-2-yl)acetonitrile]: the IC50 in experiment [1] and in experiment [2] was not above 100 nM each time.

Turning to `CC#CC(=O)N1CC[C@H](n2nnc3c(OC[C@@H]4CCCN4C)nc4c(F)c(-c5cccc(Cl)c5C)c(C)cc4c32)C[C@H]1CC#N` [Example 99, 2-((2S,4S)-1-(but-2-ynoyl)-4-(7-(3-chloro-2-methylphenyl)-6-fluoro-8-methyl-4-(((S)-1-methylpyrrolidin-2-yl)methoxy)-1H-[1,2,3]triazolo[4,5-c]quinolin-1-yl)piperidin-2-yl)acetonitrile], the IC50 in experiment [1] and in experiment [2] was not above 100 nM throughout.

Consider `C=CC(=O)N1CC[C@H](n2nnc3c(N4CC(C)(N(C)C)C4)nc4c(F)c(-c5c(C)c(Cl)cc6[nH]ncc56)c(C)cc4c32)C[C@H]1CC#N` (single isomer, unassigned) [Example 193a], for which the IC50 in experiment [1] and in experiment [2] was not above 100 nM throughout.

Turning to `C=CC(=O)N1CCC(n2cnc3c(N4CC(C)(N(C)C)C4)nc4c(F)c(-c5cccc6cccc(Cl)c56)c(Cl)cc4c32)C[C@H]1CC#N` (single isomer, unassigned) [Example 212a], the IC50 in experiment [1] and in experiment [2] was not above 100 nM in each case.

For the molecule `C=CC(=O)N1CC[C@H](n2nnc3c(N4CC(N(C)C)C4)nc4cc(-c5cccc(Cl)c5C)c(C)cc4c32)C[C@H]1CC#N` [Example 172, 2-((2S,4S)-1-acryloyl-4-(7-(3-chloro-2-methylphenyl)-4-(3-(dimethylamino)azetidin-1-yl)-8-methyl-1H-[1,2,3]triazolo[4,5-c]quinolin-1-yl)piperidin-2-yl)acetonitrile], the IC50 in experiment [1] and in experiment [2] was not above 100 nM each time.

For `C=CC(=O)N1CC[C@H](n2cnc3c(N4CC(N(C)C)C4)nc4c(F)c(-c5cccc(F)c5C)c(Cl)cc4c32)C[C@H]1CC#N` [Example 18, 2-((2S,4S)-1-acryloyl-4-(8-chloro-4-(3-(dimethylamino)azetidin-1-yl)-6-fluoro-7-(3-fluoro-2-methylphenyl)-1H-imidazo[4,5-c]quinolin-1-yl)piperidin-2-yl)acetonitrile], the IC50 in experiment [1] and in experiment [2] was not above 100 nM throughout.

With `Cc1c(C#N)cccc1-c1c(Cl)cc2c(nc(OC[C@@H]3CCCN3C)c3nnn([C@H]4CCN(C(=O)/C=C/CN(C)C)[C@H](CC#N)C4)c32)c1F` [Example 97, 3-(8-chloro-1-((2S,4S)-2-(cyanomethyl)-1-((E)-4-(dimethylamino)but-2-enoyl)piperidin-4-yl)-6-fluoro-4-(((S)-1-methylpyrrolidin-2-yl)methoxy)-1H-[1,2,3]triazolo[4,5-c]quinolin-7-yl)-2-methylbenzonitrile], the IC50 in experiment [1] and in experiment [2] was not above 100 nM in each case.

In the case of `C=CC(=O)N1CC[C@H](n2nnc3c(N4CC(N(C)C)C4)nc4c(F)c(-c5ccccc5C(F)(F)F)c(C)cc4c32)C[C@H]1CC#N` (single isomer, unassigned) [Example 165a], the IC50 in experiment [1] and in experiment [2] was not above 100 nM in each case.

These data come from patent US20210269434A1, “TRICYCLIC COMPOUNDS AS INHIBITORS OF KRAS” (Incyte Corporation, priority 2020, published 2021).
